Source: PMC4998004, “aPKC Inhibition by Par3 CR3 Flanking Regions Controls Substrate Access and Underpins Apical-Junctional Polarization” (Developmental Cell, 2016)
Numbering of substitutions follows the chain as printed. Non-standard residues stand in square brackets, D forms with d. Residues, ends and D or L forms follow the SMILES beside them. No end group written: not given here. pS = N[C@@H](COP(=O)(O)O)C(=O)O

Key:
[1] = target: T1, PKCιKD-2P (primed human PKC-iota kinase domain) (Homo sapiens, UniProt P41743, C595S); experiment: Fluorescence anisotropy binding assay with fluorescein-labelled peptides; conditions: for Kd: Figure S4D, fluorescein-labelled εPSS peptides
T1 construct: encoding residues 248–596 (GenBank: NM_002740.5); GST (followed by a 3C protease site) (N, cleaved yes); made in house; host or cells: Hi5 insect cells, baculovirus, co-infected with a PDK-1 virus
T1 sequence (P41743 248-596 C595S): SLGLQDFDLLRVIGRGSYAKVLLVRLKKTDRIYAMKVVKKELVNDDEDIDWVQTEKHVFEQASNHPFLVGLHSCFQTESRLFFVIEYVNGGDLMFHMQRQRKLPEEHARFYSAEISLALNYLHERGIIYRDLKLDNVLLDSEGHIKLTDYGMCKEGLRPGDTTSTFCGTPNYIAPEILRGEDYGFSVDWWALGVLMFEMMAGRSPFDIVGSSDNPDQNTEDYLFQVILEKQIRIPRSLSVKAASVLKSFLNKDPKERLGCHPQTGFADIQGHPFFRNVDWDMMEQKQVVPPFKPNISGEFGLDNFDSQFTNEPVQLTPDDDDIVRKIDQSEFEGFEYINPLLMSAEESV
Procedure: The ADP Quest kit (DiscoveRx) was used to determine the kcat app and KM app values for ATP against the PKCιKD-1P and PKCιKD-2P using a series of synthetic peptide substrates as described by [Kjaer et al. (2013)]. The reactions were measured every 2 min for 30 min in a 384-well plate using a Safire^2 plate reader (Tecan). The kinetic constants were determined by fitting the data to the Michaelis-Menten equation. Data are represented as mean ± SEM. Fluorescence anisotropy assays were performed to determine the KD for each peptide labeled with a fluorescein tag following standard protocols using a Safire^2 plate reader (Tecan). The anisotropy values were normalized and the KD was determined using non-linear regression. All experiments were performed in triplicate and for at least three independent protein preparations. […]
Several synthetic peptide substrates were used including a model peptide […]
(§1) ([…]) derived from a PKCε pseudo-substrate sequence with an alanine-serine change. We found this peptide to be an efficient substrate peptide for aPKC isozymes. Peptides from human Par3CR3 (residues 816-835) and F-X-R short […]
peptide ([…]) related to the Nishikawa and co-workers consensus were also used in the study (Nishikawa et al., 1997). […]
The kinetic constants were determined by fitting the data to […]
Fluorescence anisotropy binding assays
Fluorescence anisotropy assays were performed to determine the Kd for each peptide following a previously described protocol (Guettler et al., 2008). Binding assays were performed in 20 mM Tris pH 7.5, 50 mM NaCl, 5% glycerol and 0.5 mM TCEP. The reaction mixtures contained fluorescein labelled peptides at a constant 50 nM concentration, while the protein concentration ranged from 0-200 µM. The 20 µl reactions were carried out in 384-well plate and measured after 30 minutes on the Safire2 plate reader (Tecan) with the excitation at 470 nm and emission at 525 nm. […]

[2] = target: T1, PKCιKD-2P (primed human PKC-iota kinase domain); experiment: In vitro kinase assay (ADP Quest), peptide as substrate, Michaelis-Menten kinetics; format: biochemical; conditions: for increase of apparent kcat relative to wild-type Par3CR3: phosphorylation by PKCιKD-2P, Figures 5A and 5C
Procedure: The ADP Quest kit (DiscoveRx) was used to determine the kcat app and KM app values for ATP against the PKCιKD-1P and PKCιKD-2P using a series of synthetic peptide substrates as described by [Kjaer et al. (2013)]. The reactions were measured every 2 min for 30 min in a 384-well plate using a Safire^2 plate reader (Tecan). The kinetic constants were determined by fitting the data to the Michaelis-Menten equation. Data are represented as mean ± SEM. Fluorescence anisotropy assays were performed to determine the KD for each peptide labeled with a fluorescein tag following standard protocols using a Safire^2 plate reader (Tecan). The anisotropy values were normalized and the KD was determined using non-linear regression. All experiments were performed in triplicate and for at least three independent protein preparations.
The ADP Quest kit (DiscoveRx) was used to determine the kcat app and Km app values for ATP against the PKCι KD-1P and PKCι KD-2P. The assay uses a coupled reaction to convert ADP to a product that has a fluorescence excitation at 530 nm and emission at 590 nm. Several synthetic peptide substrates were used including a model peptide […]
as §1
peptide ([…]) related to the Nishikawa and co-workers consensus were also used in the study (Nishikawa et al., 1997). For the kcat app and Km app reactions, the ATP concentration ranged from 0-200 µM, while the synthetic peptide substrates were kept constant at 200 µM to avoid product inhibition. The reactions were measured every two minutes for 30 minutes in a 384-well plate using a Safire 2 plate reader (Tecan). The kinetic constants were determined by fitting the data to Michaelis–Menten equation using the graphics program Prism (GraphPad Prism, version 5.0d, GraphPad Software). […]

[3] = target: T2, human PKC-iota kinase domain, primed active form (PKCιKD-2P) (human, UniProt P41743 248-596, phosphothreonine at 412 and 564 (pT412, pT564)); experiment: FP
T2 chain: T1 sequence (P41743 248-596 C595S) with S348C

[4] = target: T3, human PKC-iota kinase domain, primed active form (PKCιKD-2P) (human, UniProt P41743 248-596, phosphothreonine at 412 and 564 (pT412, pT564)); experiment: cell-based or functional assay
T3 sequence (looked up): T1 sequence (P41743 248-596 C595S) with S348C

Molecule: CSCC[C@H](NC(=O)[C@H](CCCNC(=N)N)NC(=O)[C@@H](N)CCC(=O)O)C(=O)N[C@@H](CCCNC(=N)N)C(=O)N1CCC[C@H]1C(=O)N[C@@H](CCCNC(=N)N)C(=O)N[C@@H](CCCCN)C(=O)N[C@@H](CCCNC(=N)N)C(=O)N[C@@H](CCC(N)=O)C(=O)NCC(=O)N[C@@H](CO)C(=O)N[C@H](C(=O)N[C@@H](CCCNC(=N)N)C(=O)N[C@@H](CCCNC(=N)N)C(=O)N[C@@H](CCCNC(=N)N)C(=O)N[C@@H](Cc1ccccc1)C(=O)N[C@@H](Cc1c[nH]cn1)C(=O)N[C@@H](CCC(N)=O)C(=O)N[C@H](C(=O)N[C@@H](CC(N)=O)C(=O)O)C(C)C)C(C)C [ε +5Fpss] (H-ERMRPRKRQGSVRRRFHQVN-OH)
- Kd [1]: 16.4 ± 3.5 µM

Molecule: CSCC[C@H](NC(=O)[C@H](CO)NC(=O)[C@H](CCC(N)=O)NC(=O)[C@H](CCCNC(=N)N)NC(=O)CNC(=O)[C@H](Cc1ccccc1)NC(=O)CNC(=O)[C@H](CCC(=O)O)NC(=O)[C@H](CCCNC(=N)N)NC(=O)[C@H](CCC(N)=O)NC(=O)[C@H](Cc1ccccc1)NC(=O)[C@H](C)NC(=O)[C@@H](N)CC(C)C)C(=O)N[C@@H](CO)C(=O)N[C@@H](CCC(=O)O)C(=O)N[C@@H](C)C(=O)N[C@@H](C)C(=O)N[C@H](C(=O)N[C@@H](CCCCN)C(=O)N[C@@H](CCC(N)=O)C(=O)O)[C@@H](C)O [Par-3CR3AAT] (H-LAFQREGFGRQSMSEAATKQ-OH; N-terminus and C-terminus assumed)
- increase of apparent kcat relative to wild-type Par3CR3 [2]: 18 fold

Molecule: CSCC[C@H](NC(=O)[C@H](COP(=O)(O)O)NC(=O)[C@H](CCC(N)=O)NC(=O)[C@H](CCCNC(=N)N)NC(=O)CNC(=O)[C@H](Cc1ccccc1)NC(=O)CNC(=O)[C@H](CCC(=O)O)NC(=O)[C@H](CCCNC(=N)N)NC(=O)[C@H](CCC(N)=O)NC(=O)[C@H](Cc1ccccc1)NC(=O)[C@H](C)NC(=O)[C@@H](N)CC(C)C)C(=O)N[C@@H](CO)C(=O)N[C@@H](CCC(=O)O)C(=O)N[C@@H](CCCCN)C(=O)N[C@@H](CCCNC(=N)N)C(=O)N[C@H](C(=O)N[C@@H](CCCCN)C(=O)N[C@@H](CCC(N)=O)C(=O)O)[C@@H](C)O [Par-3CR3pS827] (H-LAFQREGFGRQ[pS]MSEKRTKQ-OH; N-terminus and C-terminus assumed)
- interaction with / affinity for PKCιKD-2P (in words) [1]: two orders of magnitude lower

Molecule: CSCC[C@H](NC(=O)[C@H](CCCNC(=N)N)NC(=O)[C@@H](N)CCC(=O)O)C(=O)N[C@@H](CCCNC(=N)N)C(=O)N1CCC[C@H]1C(=O)N[C@@H](CCCNC(=N)N)C(=O)N[C@@H](CCCCN)C(=O)N[C@@H](CCCNC(=N)N)C(=O)N[C@@H](CCC(N)=O)C(=O)NCC(=O)N[C@@H](CO)C(=O)N[C@H](C(=O)N[C@@H](CCCNC(=N)N)C(=O)N[C@@H](CCCNC(=N)N)C(=O)N[C@@H](CCCNC(=N)N)C(=O)N[C@H](C(=O)N[C@@H](Cc1c[nH]cn1)C(=O)N[C@@H](CCC(N)=O)C(=O)N[C@H](C(=O)N[C@@H](CC(N)=O)C(=O)O)C(C)C)C(C)C)C(C)C [εpss, reference compound] (H-ERMRPRKRQGSVRRRVHQVN-OH)
- Kd [1]: 13.3 ± 2.1 µM

Molecule: A-X-A + A-A-T: Par3CR3 combining both site 1 and site 3 mutations (LAAQAEGFGRQSMSEAATK)
- phosphorylation as substrate by PKCι in vitro (in words) ([2]; in vitro kinase assay): not detectably phosphorylated
- interaction with / affinity for PKCιKD-2P (in words) [1]: no measurable interaction

Molecule: CSCC[C@H](NC(=O)[C@H](C)NC(=O)[C@H](CCC(N)=O)NC(=O)[C@H](CCCNC(=N)N)NC(=O)CNC(=O)[C@H](Cc1ccccc1)NC(=O)CNC(=O)[C@H](CCC(=O)O)NC(=O)[C@H](CCCNC(=N)N)NC(=O)[C@H](CCC(N)=O)NC(=O)[C@H](Cc1ccccc1)NC(=O)[C@H](C)NC(=O)[C@@H](N)CC(C)C)C(=O)N[C@@H](CO)C(=O)N[C@@H](CCC(=O)O)C(=O)N[C@@H](CCCCN)C(=O)N[C@@H](CCCNC(=N)N)C(=O)N[C@H](C(=O)N[C@@H](CCCCN)C(=O)N[C@@H](CCC(N)=O)C(=O)O)[C@@H](C)O [S827A] (H-LAFQREGFGRQAMSEKRTKQ-OH; N-terminus and C-terminus assumed)
- kcat app ([2]; Figure 5A, ADP Quest, read every 2 min for 30 min, Michaelis-Menten fit, mean ± SEM): 0.0167 ± 0.0017 s⁻¹

Molecule: CSCC[C@H](NC(=O)[C@H](CO)NC(=O)[C@H](CCC(N)=O)NC(=O)[C@H](CCCNC(=N)N)NC(=O)CNC(=O)[C@H](Cc1ccccc1)NC(=O)CNC(=O)[C@H](CCC(=O)O)NC(=O)[C@H](C)NC(=O)[C@H](CCC(N)=O)NC(=O)[C@H](C)NC(=O)[C@H](C)NC(=O)[C@@H](N)CC(C)C)C(=O)N[C@@H](CO)C(=O)N[C@@H](CCC(=O)O)C(=O)N[C@@H](CCCCN)C(=O)N[C@@H](CCCNC(=N)N)C(=O)N[C@H](C(=O)N[C@@H](CCCCN)C(=O)N[C@@H](CCC(N)=O)C(=O)O)[C@@H](C)O [Par-3CR3AXA] (H-LAAQAEGFGRQSMSEKRTKQ-OH; N-terminus and C-terminus assumed)
- increase of apparent kcat relative to wild-type Par3CR3 [2]: 57 fold

Molecule: CSCC[C@H](NC(=O)[C@H](CCCNC(=N)N)NC(=O)[C@@H](N)CCC(=O)O)C(=O)N[C@@H](CCCNC(=N)N)C(=O)N1CCC[C@H]1C(=O)N[C@@H](Cc1ccccc1)C(=O)N[C@@H](CCCCN)C(=O)N[C@@H](CCCNC(=N)N)C(=O)N[C@@H](CCC(N)=O)C(=O)NCC(=O)N[C@@H](CO)C(=O)N[C@H](C(=O)N[C@@H](CCCNC(=N)N)C(=O)N[C@@H](CCCNC(=N)N)C(=O)N[C@@H](CCCNC(=N)N)C(=O)N[C@H](C(=O)N[C@@H](Cc1c[nH]cn1)C(=O)N[C@@H](CCC(N)=O)C(=O)N[C@H](C(=O)N[C@@H](CC(N)=O)C(=O)O)C(C)C)C(C)C)C(C)C [ε -5Fpss] (H-ERMRPFKRQGSVRRRVHQVN-OH)
- Kd [1]: 1.8 ± 0.1 µM

B1: phospho-S827 Par3 peptide (PKCι reaction product) (peptide)
peptide: LAFQREGFGRQ[pS]MSEKRTK
modifications: also: fluorescein label (position not given here)
- Kd [3]: 115 µM

B2: Par3CR3 A-A-T mutant peptide (K-R-T to A-A-T, site 3 inhibitory arm) (peptide)
peptide: LAFQREGFGRQSMSEAATK
modifications: also: fluorescein label (position not given here)
- fold increase of the apparent kcat of Par3CR3 phosphorylation by PKCιKD-2P, in vitro kinase assay [4]: 18 fold
- Kd [3]: 424 µM

B3: Par3CR3 A-X-A mutant peptide (F-Q-R to A-Q-A, site 1 affinity arm) (peptide)
peptide: LAAQAEGFGRQSMSEKRTK
modifications: also: fluorescein label (position not given here)
- fold increase of the apparent kcat of Par3CR3 phosphorylation by PKCιKD-2P, in vitro kinase assay [4]: 57 fold
- Kd [3]: 228 µM
